Laboratory results published in patent publication US7763594B2, “Compositions for the treatment of osteoarthritis and to nourish the synovial fluid” (Bioiberica, S.A., priority 2005, dated 2010).

Tests used:
[1] = tested on: human osteoarthritic synoviocytes; experiment: Production of endogenous hyaluronic acid by human synoviocytes (ELISA of culture supernatant); type: cell-based
Procedure: The composition of the invention, the HA extraction and the HA fermentation were separately incubated with synoviocytes for 12 and 24-hour periods. The following concentrations were used, both of the composition of the invention and of the hyaluronic acids: 10 μg/ml, 100 μg/ml and 200 μg/ml.
Synovial tissues were obtained from three osteoarthritic joints.
Synovial tissue was introduced into a sterile vial with DMEM (Dulbecco's Modification of Eagle's Medium) (2%), penicillin (150 U/ml), streptomycin ([…]) and amphotericin B (2 μg/ml), and then placed in a refrigerator (temperature: 0-4° C.) for transferral to the cell culture area. The synovial tissue was diced into fragments approximately sized to 2×2×2 mm^3. The fragments were washed three times in culture medium (RPMI 2% P/S/A). 20 ml of culture medium with 10% trypsin was added, and then incubated in a water bath at 37° C. for 10-15 minutes. Subsequently, the synovium was digested with 25 ml of collagenase solution [2 mg/ml type II collagenase; 5% fetal calf serum (FCS); 2% P/S/A; 1% L-glutamine; and deoxyribonuclease I 0.1 mg/ml or 150 U/l in RPMI]. The vial was introduced into a rotary shaker at 37° C. for approximately 2-4 hours. The cells were strained through a nylon filter with 25 μm diameter pores. A cell count was conducted and the cells were grown to a density of 5,000 to 10,000 cell/cm^2 in culture bottles of 25 or 75 cm^2 surface. The culture medium used was RPM supplemented with 10% FCS, 1% P/S and 1% L-glutamine. The synoviocytes used in the experiments were all from passages 2-3.
Following a 24-hour period culture, the synoviocytes (100,000 cells per well in a 24-well plate with 250 μl of medium) were stimulated using the composition of the invention, the HA extraction and the HA fermentation for 12 and 24-hour periods. Then, the supernatant of the different wells was harvested. The endogenous hyaluronic acid content was measured using an ELISA (Corgenix Inc. USA).
Results are shown as the average of 9 individual experiments performed on the cultures. Results are expressed as averages±S.D. and S.E. The statistical analysis was done using a two-tailed unpaired Student's T-test. A statistical difference is considered significant when p<0.05.

[2] = tested on: metalloprotease activity (MMP-1-2-3-12-13); experiment: Inhibition of metalloprotease activity in IL-1β-stimulated human arthrosic chondrocytes (FRET substrate); type: cell-based; conditions: 24 hours preincubation, then 100 U/ml IL-1β for 24 hours; significance p<0.05
Procedure: Solutions were prepared with the two compositions of the invention. One of them contained 160 μg/ml of hyaluronic acid and 40 μg/ml of dermatan sulphate, and was compared to hyaluronic acid at a concentration of 160 μg/ml and to dermatan sulphate at a concentration of 40 μg/ml. The other composition contained 800 μg/ml of hyaluronic acid and 200 μg/ml of dermatan sulphate and was compared to hyaluronic acid at a concentration of 800 μg/ml and to dermatan sulphate at a concentration of 200 μg/ml. The chondrocytes were isolated from cartilage pieces (from knee or hip) from […] advanced osteoarthritis, by sequential enzymatic digestion: 1 hour with hyaluronidase (0.1 mg/ml), followed by 10 hours with collagenase (type IA, 2 mg/ml) at 37° C. in DMEM/Ham's F12 medium plus penicillin (100 U/ml) and streptomycin (100 μg/ml) in a controlled CO2 atmosphere. […] Cell viability was determined by the Trypan blue exclusion method, which was in excess of 95%. […] Subsequently, supernatants were transferred to a 96-well plaque for fluorescence analysis and the FRET substrate (QXLTM 520) was added for MMP-1-2-3-12-13. The plaque was shaked and fluorescence measured a different times with excitation and emission wavelengths set at 490 nm and 520 nm, respectively. […] Means and standard errors were calculated, and an analysis of variance and Dunnett's t-test were performed. […]

Substance	level of endogenous hyaluronic acid in supernatant ([1]; 12-hour period, 100 μg/ml)	level of endogenous hyaluronic acid in supernatant ([1]; 24-hour period, 100 μg/ml)	level of endogenous hyaluronic acid in supernatant ([1]; 24-hour period, 200 μg/ml)	reduction of metalloprotease activity (in words) [2]	level of endogenous hyaluronic acid in supernatant ([1]; 12-hour period, 200 μg/ml)
hyaluronic acid [HA extraction]	25,762 ng/ml	27,634 ng/ml	91,538 ng/ml	–	–
dermatan sulphate	–	–	–	reduction of metalloprotease activity, albeit not at a statistically significant level	–
sodium hyaluronate [HA fermentation]	9,724 ng/ml	15,706 ng/ml	72,594 ng/ml	–	62,618 ng/ml
hyaluronic acid [hyaluronic acid (HA)]	–	–	–	reduction of metalloprotease activity, albeit not at a statistically significant level	–
